According to the NIST ThermoML archive (doi:10.1021/je034087q):
± gives the expanded uncertainty stated by the source.

Assay: xn = mol fraction of the nth substance listed
Details: 323.15 K

In the case of `CCCCC` [pentane] + O=C=O, the mass density (9400 kPa, Fluid (supercritical or subcritical phases), x2 = 0.939) is reported as 522 ± 3 kg/m3, the mass density (9410 kPa, Fluid (supercritical or subcritical phases), x2 = 0.916) is reported as 590 ± 4 kg/m3 and the mass density (9440 kPa, Fluid (supercritical or subcritical phases), x2 = 0.87) is reported as 630 ± 4 kg/m3. The mass density (9480 kPa, Fluid (supercritical or subcritical phases), x2 = 0.901) was 601 ± 4 kg/m3, the mass density (9510 kPa, Fluid (supercritical or subcritical phases), x2 = 0.939) was 534 ± 3 kg/m3 and the mass density (9550 kPa, Fluid (supercritical or subcritical phases), x2 = 0.791) was 688 ± 4 kg/m3. For the same compound, the mass density (9560 kPa, Fluid (supercritical or subcritical phases), x2 = 0.671) was 726 ± 5 kg/m3, the mass density (9600 kPa, Fluid (supercritical or subcritical phases), x2 = 0.901) was 607 ± 4 kg/m3 and the mass density (9630 kPa, Fluid (supercritical or subcritical phases), x2 = 0.916) was 603 ± 4 kg/m3. The mass density (9630 kPa, Fluid (supercritical or subcritical phases), x2 = 0.939) was 545 ± 3 kg/m3, the mass density (9670 kPa, Fluid (supercritical or subcritical phases), x2 = 0.87) was 638 ± 4 kg/m3 and the mass density (9740 kPa, Fluid (supercritical or subcritical phases), x2 = 0.214) was 631 ± 4 kg/m3. It also gave a mass density (9740 kPa, Fluid (supercritical or subcritical phases), x2 = 0.901) of 613 ± 4 kg/m3, a mass density (9790 kPa, Fluid (supercritical or subcritical phases), x2 = 0.939) of 558 ± 4 kg/m3 and a mass density (9920 kPa, Fluid (supercritical or subcritical phases), x2 = 0.901) of 619 ± 4 kg/m3. The mass density (9940 kPa, Fluid (supercritical or subcritical phases), x2 = 0.916) was 615 ± 4 kg/m3, the mass density (9970 kPa, Fluid (supercritical or subcritical phases), x2 = 0.939) was 572 ± 4 kg/m3 and the mass density (10000 kPa, Fluid (supercritical or subcritical phases), x2 = 0.901) was 622 ± 4 kg/m3. For the same compound, the mass density (10010 kPa, Fluid (supercritical or subcritical phases), x2 = 0.87) was 645 ± 4 kg/m3, the mass density (10080 kPa, Fluid (supercritical or subcritical phases), x2 = 0.901) was 626 ± 4 kg/m3 and the mass density (10160 kPa, Fluid (supercritical or subcritical phases), x2 = 0.901) was 628 ± 4 kg/m3. It also gave a mass density (10170 kPa, Fluid (supercritical or subcritical phases), x2 = 0.939) of 586 ± 4 kg/m3, a mass density (10240 kPa, Fluid (supercritical or subcritical phases), x2 = 0.36) of 651 ± 4 kg/m3 and a mass density (10270 kPa, Fluid (supercritical or subcritical phases), x2 = 0.901) of 633 ± 4 kg/m3. For the same compound, the mass density (10290 kPa, Fluid (supercritical or subcritical phases), x2 = 0.791) was 697 ± 4 kg/m3, the mass density (10300 kPa, Fluid (supercritical or subcritical phases), x2 = 0.916) was 628 ± 4 kg/m3 and the mass density (10420 kPa, Fluid (supercritical or subcritical phases), x2 = 0.87) was 654 ± 4 kg/m3. It also gave a mass density (10420 kPa, Fluid (supercritical or subcritical phases), x2 = 0.901) of 637 ± 4 kg/m3, a mass density (10440 kPa, Fluid (supercritical or subcritical phases), x2 = 0.939) of 600 ± 4 kg/m3 and a mass density (10620 kPa, Fluid (supercritical or subcritical phases), x2 = 0.901) of 642 ± 4 kg/m3. It also gave a mass density (10710 kPa, Fluid (supercritical or subcritical phases), x2 = 0.671) of 734 ± 5 kg/m3, a mass density (10730 kPa, Fluid (supercritical or subcritical phases), x2 = 0.916) of 642 ± 4 kg/m3 and a mass density (10760 kPa, Fluid (supercritical or subcritical phases), x2 = 0.901) of 647 ± 4 kg/m3. The mass density (10790 kPa, Fluid (supercritical or subcritical phases), x2 = 0.939) was 616 ± 4 kg/m3, the mass density (10850 kPa, Fluid (supercritical or subcritical phases), x2 = 0.87) was 661 ± 4 kg/m3 and the mass density (10950 kPa, Fluid (supercritical or subcritical phases), x2 = 0.901) was 652 ± 4 kg/m3. The mass density (11040 kPa, Fluid (supercritical or subcritical phases), x2 = 0.791) was 703 ± 4 kg/m3, the mass density (11060 kPa, Fluid (supercritical or subcritical phases), x2 = 0.214) was 634 ± 4 kg/m3 and the mass density (11220 kPa, Fluid (supercritical or subcritical phases), x2 = 0.901) was 656 ± 4 kg/m3. The mass density (11230 kPa, Fluid (supercritical or subcritical phases), x2 = 0.36) was 654 ± 4 kg/m3, the mass density (11250 kPa, Fluid (supercritical or subcritical phases), x2 = 0.939) was 635 ± 4 kg/m3 and the mass density (11260 kPa, Fluid (supercritical or subcritical phases), x2 = 0.916) was 657 ± 4 kg/m3. For the same compound, the mass density (11320 kPa, Fluid (supercritical or subcritical phases), x2 = 0.939) was 639 ± 4 kg/m3, the mass density (11440 kPa, Fluid (supercritical or subcritical phases), x2 = 0.901) was 661 ± 4 kg/m3 and the mass density (11450 kPa, Fluid (supercritical or subcritical phases), x2 = 0.87) was 670 ± 4 kg/m3. The mass density (11610 kPa, Fluid (supercritical or subcritical phases), x2 = 0.901) was 666 ± 4 kg/m3, the mass density (11890 kPa, Fluid (supercritical or subcritical phases), x2 = 0.901) was 672 ± 4 kg/m3 and the mass density (11910 kPa, Fluid (supercritical or subcritical phases), x2 = 0.791) was 713 ± 4 kg/m3. The mass density (11930 kPa, Fluid (supercritical or subcritical phases), x2 = 0.916) was 672 ± 4 kg/m3, the mass density (11970 kPa, Fluid (supercritical or subcritical phases), x2 = 0.87) was 678 ± 4 kg/m3 and the mass density (11980 kPa, Fluid (supercritical or subcritical phases), x2 = 0.671) was 740 ± 5 kg/m3. The mass density (12080 kPa, Fluid (supercritical or subcritical phases), x2 = 0.901) was 675 ± 4 kg/m3, the mass density (12440 kPa, Fluid (supercritical or subcritical phases), x2 = 0.901) was 681 ± 4 kg/m3 and the mass density (12460 kPa, Fluid (supercritical or subcritical phases), x2 = 0.36) was 656 ± 4 kg/m3. The mass density (12560 kPa, Fluid (supercritical or subcritical phases), x2 = 0.214) was 638 ± 4 kg/m3, the mass density (12580 kPa, Fluid (supercritical or subcritical phases), x2 = 0.87) was 687 ± 4 kg/m3 and the mass density (12760 kPa, Fluid (supercritical or subcritical phases), x2 = 0.901) was 686 ± 4 kg/m3. It also gave a mass density (12790 kPa, Fluid (supercritical or subcritical phases), x2 = 0.916) of 687 ± 4 kg/m3, a mass density (13000 kPa, Fluid (supercritical or subcritical phases), x2 = 0.901) of 690 ± 4 kg/m3 and a mass density (13060 kPa, Fluid (supercritical or subcritical phases), x2 = 0.791) of 721 ± 5 kg/m3. It also gave a mass density (13280 kPa, Fluid (supercritical or subcritical phases), x2 = 0.901) of 695 ± 4 kg/m3, a mass density (13290 kPa, Fluid (supercritical or subcritical phases), x2 = 0.87) of 695 ± 4 kg/m3 and a mass density (13530 kPa, Fluid (supercritical or subcritical phases), x2 = 0.901) of 698 ± 4 kg/m3. It also gave a mass density (13560 kPa, Fluid (supercritical or subcritical phases), x2 = 0.36) of 659 ± 4 kg/m3, a mass density (13800 kPa, Fluid (supercritical or subcritical phases), x2 = 0.671) of 749 ± 5 kg/m3 and a mass density (13800 kPa, Fluid (supercritical or subcritical phases), x2 = 0.901) of 701 ± 4 kg/m3. It also gave a mass density (13860 kPa, Fluid (supercritical or subcritical phases), x2 = 0.214) of 640 ± 4 kg/m3, a mass density (13860 kPa, Fluid (supercritical or subcritical phases), x2 = 0.916) of 705 ± 4 kg/m3 and a mass density (14040 kPa, Fluid (supercritical or subcritical phases), x2 = 0.87) of 704 ± 4 kg/m3. For the same compound, the mass density (14050 kPa, Fluid (supercritical or subcritical phases), x2 = 0.901) was 705 ± 4 kg/m3, the mass density (14440 kPa, Fluid (supercritical or subcritical phases), x2 = 0.901) was 712 ± 4 kg/m3 and the mass density (14470 kPa, Fluid (supercritical or subcritical phases), x2 = 0.916) was 715 ± 4 kg/m3. For the same compound, the mass density (14510 kPa, Fluid (supercritical or subcritical phases), x2 = 0.791) was 732 ± 5 kg/m3, the mass density (14700 kPa, Fluid (supercritical or subcritical phases), x2 = 0.901) was 714 ± 4 kg/m3 and the mass density (14730 kPa, Fluid (supercritical or subcritical phases), x2 = 0.87) was 713 ± 4 kg/m3. For the same compound, the mass density (14810 kPa, Fluid (supercritical or subcritical phases), x2 = 0.36) was 662 ± 4 kg/m3, the mass density (15220 kPa, Fluid (supercritical or subcritical phases), x2 = 0.214) was 642 ± 4 kg/m3 and the mass density (Liquid, Other PVT measurement, x2 = 0.214) was 603 ± 2 kg/m3. For the same compound, the mass density (Liquid, Other PVT measurement, x2 = 0.36) was 632 ± 2 kg/m3, the mass density (Liquid, Other PVT measurement, x2 = 0.671) was 702 ± 2 kg/m3 and the mass density (Liquid, Other PVT measurement, x2 = 0.791) was 651 ± 2 kg/m3. The mass density (Liquid, Other PVT measurement, x2 = 0.87) was 573 ± 2 kg/m3 and the mass density (Liquid, Other PVT measurement, x2 = 0.901) was 511 ± 2 kg/m3.
